pIC50: −log10 of the molar value.

One assay has as its system red blood cells (5% RBC suspension). Put plainly: Test Example 2-1: in vitro hemolytic activity test (upper limit 50, 80, 100 or 200 μmol/L). The assay is classed as cell-based. The settings on record: Erythrocyte, 1 h; hemolysis method 50 (upper concentration 50 μmol/L); 5% RBC suspension, 37° C., one hour; read-out: hemolysis IC50. The method, then: Nephrotoxic potentials of the compounds of the present invention except the compounds whose X is —N(R^F)—CO—X^1 and X^1 is the group represented by formula (III) and T is —N(R^a5)— were investigated by in vitro hemolytic activity test under the condition, in that, the upper limit was 50 μmol/L, 80 μmol/L, 100 μmol/L, or 200 μmol/L as the required concentration to 50% of hemolysis (IC50).
Defibrinated sterile blood was centrifuged at 700×g for 3 minutes and, and the supernatant was removed for 100% of red blood cells. After the cleaning with physiological saline, the washed blood cells was suspended in the medium (Earle's balanced salt sodium, bicarbonate, 0.1 g/L L-glutamine without phenol red), and was diluted by 5% (5% RBC suspension).
The washed blood was diluted by 5% in water for injection (solution of complete hemolysis), and was used as the indication of optical density for complete hemolysis.
The compounds of the present invention solution in DMSO (several and doubling dilutions starting from 2.5 mmol/L, 4 mmol/L, 5 mmol/L, or 10 mmol/L), DMSO as the negative control, and Amphotericin B as the positive control were used, and each 5 μL of these was added in to a well of V-form 96 well type microplate.
Finally, the maximum concentration of the compounds of the present invention solution in DMSO was 50 μmol/L, 80 μmol/L, 100 μmol/L, or 200 μmol/L by adding 245 μL of the medium or 5% RBC suspension into the well.
Two hundred fifty μL of the solution of complete hemolysis was added into another well and the microplate was incubated at 37° C. in 5% of CO2 concentration for an hour.
After the incubation, each 100 μL of supernatants in wells was collected by centrifugation of the microplate at 300×g for 5 minutes and was located on a well of flat-form 96 well type microplate. An absorbance of each supernatant was measured at wavelength of 540 nm.
Percent hemolysis was calculated by using the followed equation. The required concentration to 50% of hemolysis (IC50) was calculated based on the percent hemolysis. […] Hemolysis (%)=(CR−VM)×100÷(VL−VR) Where:
CR: Absorbance of 5% RBC suspension incubated with the compounds of the present invention solution in DMSO
VM: Absorbance of medium incubated with the compounds of the present invention solution in DMSO
VL: Absorbance of solution of complete hemolysis
VR: Absorbance of 5% RBC suspension incubated with DMSO
The “hemolysis method” in the table means any tests the upper concentration of above IC50 are 50 μmol/L, 80 μmol/L, 100 μmol/L or 200 μmol/L. The “>50”, “>80”, “>100” or “>200” in the table means above IC50 value exceeded the each upper concentration.
For orientation: pIC50 means the IC50 on a negative log10 scale, so that one unit is a factor of ten. Regarding `C[C@@H]1[C@H](O)[C@@H](C)/C=C/C=C/C=C/C=C/C=C/C=C/C=C/[C@H](O[C@@H]2O[C@H](C)[C@@H](O)[C@H](N)[C@@H]2O)C[C@@H]2O[C@](O)(C[C@@H](O)C[C@@H](O)[C@H](O)CC[C@@H](O)C[C@@H](O)CC(=O)O[C@H]1C)C[C@H](O)[C@H]2NC(=O)NC1CC1` [I-41], the pIC50 was less than 4.30.

Still in this assay, the particulars now being: Erythrocyte, 1 h; hemolysis method 100 (upper concentration 100 μmol/L); 5% RBC suspension, 37° C., one hour; read-out: hemolysis IC50.
On to `C[C@@H]1[C@H](O)[C@@H](C)/C=C/C=C/C=C/C=C/C=C/C=C/C=C/[C@H](O[C@@H]2O[C@H](C)[C@@H](O)[C@H](N)[C@@H]2O)C[C@@H]2O[C@](O)(C[C@@H](O)C[C@@H](O)[C@H](O)CC[C@@H](O)C[C@@H](O)CC(=O)O[C@H]1C)C[C@H](O)[C@H]2NC(=O)NCCc1c[nH]cn1` [I-5], for which the pIC50 is 4.03.

The assay is the same for the next values; noted with them: hemolysis method 50 (upper concentration 50 μmol/L); 5% RBC suspension, 37° C., one hour; read-out: hemolysis IC50.
For `C[C@@H]1[C@H](O)[C@@H](C)/C=C/C=C/C=C/C=C/C=C/C=C/C=C/[C@H](O[C@@H]2O[C@H](C)[C@@H](O)[C@H](N)[C@@H]2O)C[C@@H]2O[C@](O)(C[C@@H](O)C[C@@H](O)[C@H](O)CC[C@@H](O)C[C@@H](O)CC(=O)O[C@H]1C)C[C@H](O)[C@H]2NC(=O)NCCOCCOCCO` [I-11], the negative-log IC50 (pIC50) is less than 4.30. As for `C[C@@H]1[C@H](O)[C@@H](C)/C=C/C=C/C=C/C=C/C=C/C=C/C=C/[C@H](O[C@@H]2O[C@H](C)[C@@H](O)[C@H](N)[C@@H]2O)C[C@@H]2O[C@](O)(C[C@@H](O)C[C@@H](O)[C@H](O)CC[C@@H](O)C[C@@H](O)CC(=O)O[C@H]1C)C[C@H](O)[C@H]2NC(=O)NCCCC(=O)O` [I-38], the pIC50 is less than 4.30.

Still in this assay, the particulars now being: hemolysis method 80 (upper concentration 80 μmol/L); 5% RBC suspension, 37° C., one hour; read-out: hemolysis IC50.
Take `C[C@@H]1[C@H](O)[C@@H](C)/C=C/C=C/C=C/C=C/C=C/C=C/C=C/[C@H](O[C@@H]2O[C@H](C)[C@@H](O)[C@H](N)[C@@H]2O)C[C@@H]2O[C@](O)(C[C@@H](O)C[C@@H](O)[C@H](O)CC[C@@H](O)C[C@@H](O)CC(=O)O[C@H]1C)C[C@H](O)[C@H]2NC(=O)N1CCC(N(C)C)C1` (single isomer, unassigned) [I-49]: the pIC50 was less than 4.10.

In the case of `C[C@@H]1[C@H](O)[C@@H](C)/C=C/C=C/C=C/C=C/C=C/C=C/C=C/[C@H](O[C@@H]2O[C@H](C)[C@@H](O)[C@H](N)[C@@H]2O)C[C@@H]2O[C@](O)(C[C@@H](O)C[C@@H](O)[C@H](O)CC[C@@H](O)C[C@@H](O)CC(=O)O[C@H]1C)C[C@H](O)[C@H]2NC(=O)N1CCC(N(C)C)C1` (single isomer, unassigned) [I-50], the negative-log IC50 (pIC50) was less than 4.10. As to `C[C@@H]1[C@H](O)[C@@H](C)/C=C/C=C/C=C/C=C/C=C/C=C/C=C/[C@H](O[C@@H]2O[C@H](C)[C@@H](O)[C@H](N)[C@@H]2O)C[C@@H]2O[C@](O)(C[C@@H](O)C[C@@H](O)[C@H](O)CC[C@@H](O)C[C@@H](O)CC(=O)O[C@H]1C)C[C@H](O)[C@H]2NC(=O)NCCc1ccccn1` [I-15], the pIC50 is less than 4.10. Still for that read-out and setting: to `C[C@@H]1[C@H](O)[C@@H](C)/C=C/C=C/C=C/C=C/C=C/C=C/C=C/[C@H](O[C@@H]2O[C@H](C)[C@@H](O)[C@H](N)[C@@H]2O)C[C@@H]2O[C@](O)(C[C@@H](O)C[C@@H](O)[C@H](O)CC[C@@H](O)C[C@@H](O)CC(=O)O[C@H]1C)C[C@H](O)[C@H]2NC(=O)N1CCN(c2ccccc2)CC1` [I-17] belongs less than 4.10. Take `C[C@@H]1[C@H](O)[C@@H](C)/C=C/C=C/C=C/C=C/C=C/C=C/C=C/[C@H](O[C@@H]2O[C@H](C)[C@@H](O)[C@H](N)[C@@H]2O)C[C@@H]2O[C@](O)(C[C@@H](O)C[C@@H](O)[C@H](O)CC[C@@H](O)C[C@@H](O)CC(=O)O[C@H]1C)C[C@H](O)[C@H]2NC(=O)N1CCOCCOCCOCCOCCOCC1` [I-18]: the pIC50 was less than 4.10.

As for `C[C@@H]1[C@H](O)[C@@H](C)/C=C/C=C/C=C/C=C/C=C/C=C/C=C/[C@H](O[C@@H]2O[C@H](C)[C@@H](O)[C@H](N)[C@@H]2O)C[C@@H]2O[C@](O)(C[C@@H](O)C[C@@H](O)[C@H](O)CC[C@@H](O)C[C@@H](O)CC(=O)O[C@H]1C)C[C@H](O)[C@H]2NC(=O)NCC(F)(F)F` [I-21], the pIC50 is less than 4.10. With `C[C@@H]1[C@H](O)[C@@H](C)/C=C/C=C/C=C/C=C/C=C/C=C/C=C/[C@H](O[C@@H]2O[C@H](C)[C@@H](O)[C@H](N)[C@@H]2O)C[C@@H]2O[C@](O)(C[C@@H](O)C[C@@H](O)[C@H](O)CC[C@@H](O)C[C@@H](O)CC(=O)O[C@H]1C)C[C@H](O)[C@H]2NC(=O)N1CCCCC1c1ccccc1` (stereo partly shown) [I-22], the pIC50 is less than 4.10. Still for that read-out and setting: to `C[C@@H]1[C@H](O)[C@@H](C)/C=C/C=C/C=C/C=C/C=C/C=C/C=C/[C@H](O[C@@H]2O[C@H](C)[C@@H](O)[C@H](N)[C@@H]2O)C[C@@H]2O[C@](O)(C[C@@H](O)C[C@@H](O)[C@H](O)CC[C@@H](O)C[C@@H](O)CC(=O)O[C@H]1C)C[C@H](O)[C@H]2NC(=O)N1CCCN(CCCN2CCOCC2)CC1` [I-23] belongs 4.10. For `C[C@@H]1[C@H](O)[C@@H](C)/C=C/C=C/C=C/C=C/C=C/C=C/C=C/[C@H](O[C@@H]2O[C@H](C)[C@@H](O)[C@H](N)[C@@H]2O)C[C@@H]2O[C@](O)(C[C@@H](O)C[C@@H](O)[C@H](O)CC[C@@H](O)C[C@@H](O)CC(=O)O[C@H]1C)C[C@H](O)[C@H]2NC(=O)N1CCN(CCCOc2ccccc2)CC1` [I-24], the pIC50 is less than 4.10. Same read-out and setting: next, `C[C@@H]1[C@H](O)[C@@H](C)/C=C/C=C/C=C/C=C/C=C/C=C/C=C/[C@H](O[C@@H]2O[C@H](C)[C@@H](O)[C@H](N)[C@@H]2O)C[C@@H]2O[C@](O)(C[C@@H](O)C[C@@H](O)[C@H](O)CC[C@@H](O)C[C@@H](O)CC(=O)O[C@H]1C)C[C@H](O)[C@H]2NC(=O)N(CCO)CCO` [I-39]: less than 4.10.

The same assay, now with this note: hemolysis method 100 (upper concentration 100 μmol/L); 5% RBC suspension, 37° C., one hour; read-out: hemolysis IC50.
For `C[C@@H]1[C@H](O)[C@@H](C)/C=C/C=C/C=C/C=C/C=C/C=C/C=C/[C@H](O[C@@H]2O[C@H](C)[C@@H](O)[C@H](N)[C@@H]2O)C[C@@H]2O[C@](O)(C[C@@H](O)C[C@@H](O)[C@H](O)CC[C@@H](O)C[C@@H](O)CC(=O)O[C@H]1C)C[C@H](O)[C@H]2NC(=O)NC(CO)Cc1c[nH]cn1` (stereo partly shown) [I-6], the negative logarithm of the IC50 (pIC50) is 4.12. On the same count and under the same terms, to `C[C@@H]1[C@H](O)[C@@H](C)/C=C/C=C/C=C/C=C/C=C/C=C/C=C/[C@H](O[C@@H]2O[C@H](C)[C@@H](O)[C@H](N)[C@@H]2O)C[C@@H]2O[C@](O)(C[C@@H](O)C[C@@H](O)[C@H](O)CC[C@@H](O)C[C@@H](O)CC(=O)O[C@H]1C)C[C@H](O)[C@H]2NC(=O)NCCCN(C)C` [I-7] belongs 4.09; to `C[C@@H]1[C@H](O)[C@@H](C)/C=C/C=C/C=C/C=C/C=C/C=C/C=C/[C@H](O[C@@H]2O[C@H](C)[C@@H](O)[C@H](N)[C@@H]2O)C[C@@H]2O[C@](O)(C[C@@H](O)C[C@@H](O)[C@H](O)CC[C@@H](O)C[C@@H](O)CC(=O)O[C@H]1C)C[C@H](O)[C@H]2NC(=O)NCCCN1CCOCC1` [I-8], 4.02; to `C[C@@H]1[C@H](O)[C@@H](C)/C=C/C=C/C=C/C=C/C=C/C=C/C=C/[C@H](O[C@@H]2O[C@H](C)[C@@H](O)[C@H](N)[C@@H]2O)C[C@@H]2O[C@](O)(C[C@@H](O)C[C@@H](O)[C@H](O)CC[C@@H](O)C[C@@H](O)CC(=O)O[C@H]1C)C[C@H](O)[C@H]2NC(=O)NCCn1cncn1` [I-9], less than 4.00. Take `C[C@@H]1[C@H](O)[C@@H](C)/C=C/C=C/C=C/C=C/C=C/C=C/C=C/[C@H](O[C@@H]2O[C@H](C)[C@@H](O)[C@H](N)[C@@H]2O)C[C@@H]2O[C@](O)(C[C@@H](O)C[C@@H](O)[C@H](O)CC[C@@H](O)C[C@@H](O)CC(=O)O[C@H]1C)C[C@H](O)[C@H]2NC(=O)N(C)C` [I-10]: the pIC50 was less than 4.00.

For the origin of these results see patent US10696707B2, “Polyene macrolide derivative” (Shionogi & Co., Ltd., priority 2014, dated 2020).
